{"source": "patent US8912315B2", "about": "“Purkinje cell-tropic viral vector” (Japan Science and Technology Agency, priority 2006, dated 2014)", "test_system": "HeLa cells", "assay_type": "cell-based", "conditions": "viruses generated in HEK293T cells with the named serum or protease inhibitor, Table 3; TU/ml"}
{"compound": "TIMP-1: metallo proteinase inhibitor added to medium during virus generation", "values": [{"measurement": "Titer × 10^9", "result": "6.3 × 10^9"}]}
{"compound": "COc1ccc(S(=O)(=O)N(Cc2cccnc2)[C@@H](C(=O)NO)C(C)C)cc1", "note": "[CGS 27023A]", "values": [{"measurement": "Titer × 10^9", "result": "3.4 ± 1.4 × 10^9"}]}
